Values quoted from earlier work, collected in patent US20090312688A1, “IONTOPHORESIS DRUG DELIVERY FORMULATION PROVIDING ACCEPTABLE SENSATION AND DERMAL ANESTHESIA” (Vyteris, Inc., priority 2005, published 2009).

settings: iontophoresis in vitro across human skin

Cumulative delivery relative to lidocaine, slightly greater delivery:
CCCNC(C)C(=O)Nc1ccccc1C (stereo not drawn) [prilocaine]
CCCN(CC)C(CC)C(=O)Nc1c(C)cccc1C (stereo not drawn) [etidocaine]
CCN(CC)CCOC(=O)c1ccc(N)cc1 [procaine]
